Experimental data from US20240366589A1, “NHE3-BINDING COMPOUNDS AND METHODS FOR INHIBITING PHOSPHATE TRANSPORT” (Ardelyx, Inc., priority 2013, published 2024).

How the values were obtained:
Human NHE3 = target: T1, Human NHE3 (Homo sapiens, UniProt P48764); test: Cell-based NHE3 activity under prompt conditions (OK cells, BCECF pH recovery), human NHE3; details: prompt conditions
T1 construct: expressed in transfected cells; host or cells: Opossum kidney (OK) cells (ATCC), electroporation
T1 sequence (P48764 26-834): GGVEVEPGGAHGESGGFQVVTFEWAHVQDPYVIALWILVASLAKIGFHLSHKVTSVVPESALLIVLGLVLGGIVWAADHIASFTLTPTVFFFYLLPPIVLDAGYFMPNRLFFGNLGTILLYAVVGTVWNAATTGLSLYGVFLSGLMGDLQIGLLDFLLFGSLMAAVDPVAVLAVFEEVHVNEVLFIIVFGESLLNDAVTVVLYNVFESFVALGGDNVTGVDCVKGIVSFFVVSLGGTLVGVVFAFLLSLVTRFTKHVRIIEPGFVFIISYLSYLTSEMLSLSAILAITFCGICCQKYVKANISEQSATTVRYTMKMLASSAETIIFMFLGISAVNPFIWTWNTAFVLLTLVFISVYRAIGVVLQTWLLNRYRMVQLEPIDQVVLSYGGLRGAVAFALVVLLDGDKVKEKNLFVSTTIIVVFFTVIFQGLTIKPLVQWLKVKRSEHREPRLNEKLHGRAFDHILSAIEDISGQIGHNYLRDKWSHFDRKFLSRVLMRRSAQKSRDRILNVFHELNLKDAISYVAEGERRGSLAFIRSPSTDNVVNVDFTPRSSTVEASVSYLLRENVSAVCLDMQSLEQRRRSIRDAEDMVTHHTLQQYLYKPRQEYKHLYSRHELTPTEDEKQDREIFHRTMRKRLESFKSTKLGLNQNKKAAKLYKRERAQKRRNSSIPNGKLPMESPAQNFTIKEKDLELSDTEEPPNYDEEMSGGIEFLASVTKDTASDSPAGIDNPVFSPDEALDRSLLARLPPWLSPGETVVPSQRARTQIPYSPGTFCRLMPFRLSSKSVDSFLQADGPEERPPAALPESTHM
Description: (§1) Cell-based activity under Prompt Conditions. Rat or human NHE3-mediated Na^+-dependent H antiport was measured using a modification of the pH sensitive dye method originally reported by Paradiso (PNAS USA. 81:7436-7440, 1984). Opossum kidney (OK) cells were obtained from the ATCC and propagated per their instructions. The rat NHE3 gene (GenBank M85300) or the human NHE3 gene (GenBank NM_004174.1) was introduced into OK cells via electroporation, and cells were seeded into 96 well plates and grown overnight. Medium was aspirated from the wells, cells were washed twice with NaCl-HEPES buffer (100 mM NaCl, 50 mM HEPES, 10 mM glucose, 5 mM KCl, 2 mM CaCl2, 1 mM MgCl2, pH 7.4), then incubated for 30 min at room temperature with NH4Cl-HEPES buffer (20 mM NH4Cl, 80 mM NaCl, 50 mM HEPES, 5 mM KCl, 2 mM CaCl2, 1 mM MgCl2, pH 7.4) containing 5 μM bis(acetoxymethyl) 3,3′-(3′,6′-bis(acetoxymethoxy)-5-((acetoxymethoxy)carbonyl)-3-oxo-3H-spiro[isobenzofuran-1,9′-xanthene]-2′,7′-diyl)dipropanoate (BCECF-AM).
(§2) Cells were washed twice with Ammonium free, Na^+-free HEPES (100 mM choline, 50 mM HEPES, 10 mM glucose, 5 mM KCl, 2 mM CaCl2, 1 mM MgCl2, pH 7.4) and incubated in the same buffer for 10 minutes at room temperature to lower intracellular pH. […] Initial rates were plotted as the average 2 or more replicates, and pIC50 values were estimated using GraphPad Prism.
(§3) Cell-based activity of NHE3 Activity under ‘Prompt’ Conditions. This assay was performed as described in Example 1 (supra).

[1] = tested on: phosphorus and calcium levels in the urine of rats; test: Urinary excretion of phosphate and calcium in rats (16 h overnight urine); assay type: in vivo, rat; details: rats, oral gavage, 16 h post-dose
[2] = tested on: absorption of sodium from the intestinal lumen; test: Fecal form score (FFS) 16 h after oral dose in rats; assay type: in vivo, rat; details: oral gavage, 16 h post-dose, scale 1-5
Description: (§4) Inhibition of intestinal sodium and phosphate absorption. Urinary sodium concentration and fecal form were measured to assess the ability of selected example compounds to inhibit the absorption of sodium from the intestinal lumen. Eight-week old Sprague-Dawley rats were purchased from Charles River Laboratories (Hollister, CA), were housed 2 per cage, and acclimated for at least 3 days before study initiation. Animals were fed Harlan Teklad Global 2018 rodent chow (Indianapolis, IN) and water ad libitum throughout the study and maintained in a standard light/dark cycle of 6 AM to 6 PM. On the day of the study, between 4 PM and 5 PM, a group of rats (n=6) were dosed via oral gavage with test compound, or a pharmaceutically acceptable salt thereof, or vehicle (water) at a volume of 10 mL/kg.
(§5) After dose administration animals were placed in individual metabolic cages where they were also fed the same chow in meal form and watered ad libitum. At 16 h post-dose, the urine samples were collected and fecal form was assessed by two independent observations. Fecal forms were scored according to a common scale associated with increasing fecal water to the wettest observation in the cage's collection funnel (1, normal pellet; 2, pellet adhering to sides of collection funnel due to moisture; 3, loss of normal pellet shape; 4, complete loss of shape with a blotting pattern; 5, liquid fecal streams evident). A rat's fecal form score (FFS) was determined by averaging both observational scores for all rats within a group (n=6). The vehicle group average was 1.

[3] = tested on: absorption of sodium from the intestinal lumen; test: Inhibition of intestinal sodium absorption: urinary sodium (uNa) 16 h after single oral dose in rats; assay type: in vivo, rat; details: oral gavage, 16 h post-dose
Description: as §4, §5
For urine samples, the volumes were determined gravimetrically and centrifuged at 3,600×g. The supernatants were diluted 100-fold in deionized Milli-Q water then filtered through a 0.2 μm GHP Pall AcroPrep filter plate (Pall Life Sciences, Ann Arbor, MI) prior to analysis by ion chromatography. Ten microliters of each filtered extract was injected onto a Dionex ICS-3000 ion chromatograph system (Dionex, Sunnyvale, CA). Cations were separated by an isocratic method using 25 mM methanesulfonic acid as the eluent on an IonPac CS12A 2 mm i.d.×250 mm, 8 μm particle size cation exchange column (Dionex). Sodium was quantified using standards prepared from a cation standard mix containing Li^+, Na^+, NH4^+, K^+, Mg^2+, and Ca^2+ (Dionex). The mean mass of sodium urinated for every group in the 16 h period was determined with the vehicle group usually urinating approximately 21 mg sodium. The urine Na (uNa) for rats in the test groups were expressed as a percentage of the vehicle mean and the means were compared to that of the vehicle group by utilizing a one-way analysis of variance coupled with a Dunnett's post hoc test.
Further experiments were performed to test the compounds under the persistent and prompt conditions described above, and to test their effects on urinary excretion of sodium in rats. The latter was performed by orally dosing the compounds in rats (single dose) and measuring urinary Na excretion (as a % of vehicle). The results are indicated as percentage of urinary sodium (UNa %); low values indicate relatively active compounds.

Rat NHE3 = target: T2, Rat NHE3 (Rattus norvegicus, UniProt P26433); test: Cell-based NHE3 activity under prompt conditions (OK cells, BCECF pH recovery), rat NHE3; details: prompt conditions
T2 construct: expressed in transfected cells; host or cells: Opossum kidney (OK) cells (ATCC), electroporation
T2 sequence (P26433 29-831): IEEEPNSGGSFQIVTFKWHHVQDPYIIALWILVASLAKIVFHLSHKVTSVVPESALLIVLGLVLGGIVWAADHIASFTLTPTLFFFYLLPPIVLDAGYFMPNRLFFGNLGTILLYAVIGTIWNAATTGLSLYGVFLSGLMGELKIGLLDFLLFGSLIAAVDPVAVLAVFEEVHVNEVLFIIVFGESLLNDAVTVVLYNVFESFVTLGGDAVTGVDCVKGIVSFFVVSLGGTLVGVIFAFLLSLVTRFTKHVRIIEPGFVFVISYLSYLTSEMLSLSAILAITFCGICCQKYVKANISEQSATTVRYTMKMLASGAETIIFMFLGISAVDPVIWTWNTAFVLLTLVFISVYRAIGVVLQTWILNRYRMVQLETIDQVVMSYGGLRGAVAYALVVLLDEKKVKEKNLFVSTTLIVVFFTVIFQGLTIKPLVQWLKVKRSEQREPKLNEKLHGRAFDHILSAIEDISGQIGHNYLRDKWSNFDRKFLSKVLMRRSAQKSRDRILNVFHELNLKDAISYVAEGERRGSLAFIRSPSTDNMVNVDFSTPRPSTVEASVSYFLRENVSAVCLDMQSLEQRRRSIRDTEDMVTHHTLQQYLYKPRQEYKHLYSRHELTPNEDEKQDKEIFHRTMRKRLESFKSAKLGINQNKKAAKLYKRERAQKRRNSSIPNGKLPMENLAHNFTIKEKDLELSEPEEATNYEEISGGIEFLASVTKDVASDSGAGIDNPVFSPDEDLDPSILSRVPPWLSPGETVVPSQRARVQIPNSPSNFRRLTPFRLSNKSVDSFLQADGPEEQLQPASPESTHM
Description: as §1, §2, §3

| Compound | Prompt Human NHE3 pIC50 (Human NHE3) | Urine P % of control ([1]; dose 1 mg/kg) [%] | Fecal Form Score average ([2]; dose 1 mg/kg) | Urine Na % of control ([3]; dose 1 mg/kg) [%] | IC50 (Rat NHE3; read-out: Prompt Rat NHE3 pIC50 (converted)) [nM] | Urine P % of control ([1]; dose 10 mg/kg) [%] | Fecal Form Score average ([2]; dose 10 mg/kg) | Urine Na % of control ([3]; dose 10 mg/kg) [%] | Prompt Rat NHE3 pIC50 (Rat NHE3) | Urine P % of control ([1]; dose 3 mg/kg) [%] | Fecal Form Score average ([2]; dose 3 mg/kg) | Urine Na % of control ([3]; dose 3 mg/kg) [%] | Urine P % of control ([1]; dose 30 mg/kg) [%] | Fecal Form Score average ([2]; dose 30 mg/kg) | Urine Na % of control ([3]; dose 30 mg/kg) [%] |
| --- | --- | --- | --- | --- | --- | --- | --- | --- | --- | --- | --- | --- | --- | --- | --- |
| CN1Cc2c(Cl)cc(Cl)cc2C(c2cccc(NC(=O)[C@H](O)[C@@H](O)[C@H](O)[C@H](O)CO)c2)C1 (stereo in doubt) [compound 3] | 7.60 | 57 | 1 | 41 | 39.8 | – | – | – | – | – | – | – | – | – | – |
| CN1Cc2c(Cl)cc(Cl)cc2C(c2cccc(S(=O)(=O)NCCOCCOCCOCCNC(=O)NCCN(CCNC(=O)NCCOCCOCCOCCNS(=O)(=O)c3cccc([C@@H]4CN(C)Cc5c(Cl)cc(Cl)cc54)c3)CCNC(=O)NCCOCCOCCOCCNS(=O)(=O)c3cccc([C@@H]4CN(C)Cc5c(Cl)cc(Cl)cc54)c3)c2)C1 (stereo in doubt) [compound 59] | 7.30 | – | – | – | – | 45 | 2 | 18 | 6.90 | – | – | – | – | – | – |
| CN1Cc2c(Cl)cc(Cl)cc2C(c2cccc(S(=O)(=O)NCCOCCOCCOCCNC(=O)CN(CCN(CCN(CC(=O)NCCOCCOCCOCCNS(=O)(=O)c3cccc([C@@H]4CN(C)Cc5c(Cl)cc(Cl)cc54)c3)CC(=O)NCCOCCOCCOCCNS(=O)(=O)c3cccc([C@@H]4CN(C)Cc5c(Cl)cc(Cl)cc54)c3)CC(=O)NCCOCCOCCOCCNS(=O)(=O)c3cccc([C@@H]4CN(C)Cc5c(Cl)cc(Cl)cc54)c3)CC(=O)NCCOCCOCCOCCNS(=O)(=O)c3cccc([C@@H]4CN(C)Cc5c(Cl)cc(Cl)cc54)c3)c2)C1 (stereo in doubt) [compound 75] | 6.90 | – | – | – | – | 55 | 1 | 81 | 6.30 | – | – | – | – | – | – |
| CN1Cc2c(Cl)cc(Cl)cc2C(c2cccc(S(=O)(=O)NCCOCCOCCOCCNC(=O)CCC(CCC(=O)NCCOCCOCCOCCNS(=O)(=O)c3cccc([C@@H]4CN(C)Cc5c(Cl)cc(Cl)cc54)c3)(CCC(=O)NCCOCCOCCOCCNS(=O)(=O)c3cccc([C@@H]4CN(C)Cc5c(Cl)cc(Cl)cc54)c3)NCc3ccc(-c4ccc(Cl)cc4)cc3)c2)C1 (stereo in doubt) [compound 114] | <5.00 | – | – | – | – | 100 | 3 | 45 | <5.00 | – | – | – | – | – | – |
| CN1CCN(C(=O)NC(CCC(=O)NCCOCCOCCNS(=O)(=O)c2cccc(C3CN(C)Cc4c(Cl)cc(Cl)cc43)c2)(CCC(=O)NCCOCCOCCNS(=O)(=O)c2cccc([C@@H]3CN(C)Cc4c(Cl)cc(Cl)cc43)c2)CCC(=O)NCCOCCOCCNS(=O)(=O)c2cccc([C@@H]3CN(C)Cc4c(Cl)cc(Cl)cc43)c2)CC1 (stereo in doubt) [compound 153] | 7.50 | – | – | – | – | – | – | – | 6.90 | 84 | 3 | 28 | – | – | – |
| COCCNS(=O)(=O)c1cccc(C2CN(C)Cc3c(Cl)cc(Cl)cc32)c1 (stereo not shown) [compound 2] | 6.50 | – | – | – | – | 80 | 1 | 115 | 6.70 | – | – | – | – | – | – |
| C/C(=C\c1cc(F)c(Oc2ccc(S(=O)(=O)NCCOCCOCCOCCN)cc2)c(F)c1)C(=O)N=C(N)N [compound 4] | 6.80 | – | – | – | – | 106 | 1 | 84 | 6.90 | – | – | – | – | – | – |
| C/C(=C\c1cc(F)c(Oc2ccc(S(=O)(=O)NCCOCCOCCOCCNC(=O)[C@H](O)[C@@H](O)C(=O)NCCOCCOCCOCCNS(=O)(=O)c3ccc(Oc4c(F)cc(/C=C(\C)C(=O)N=C(N)N)cc4F)cc3)cc2)c(F)c1)C(=O)N=C(N)N [compound 5] | 7.85 | – | – | – | – | 65 | 1 | 51 | 6.90 | – | – | – | 105 | 2 | 23 |
| N=C(N)Nc1nc(-c2cccc(S(=O)(=O)NCCOCCOCCN)c2)c2cc(Cl)ccc2n1 [compound 7] | 7.20 | – | – | – | – | 90 | 1 | 76 | 6.30 | – | – | – | – | – | – |
| N=C(N)Nc1nc(-c2ccc(S(=O)(=O)NCCOCCOCCN)cc2)c2cc(Cl)ccc2n1 [compound 8] | 6.40 | – | – | – | – | 101 | 1 | 73 | 6.90 | – | – | – | 114 | 2 | 31 |
| C/C(=C\c1cc(F)c(Oc2ccc(S(=O)(=O)NCCOCCOCCOCCNC(=O)CN(C)CC(=O)NCCOCCOCCOCCNS(=O)(=O)c3ccc(Oc4c(F)cc(/C=C(\C)C(=O)N=C(N)N)cc4F)cc3)cc2)c(F)c1)C(=O)N=C(N)N [compound 9] | 7.10 | – | – | – | – | 77 | 1 | 56 | 6.50 | – | – | – | – | – | – |
